These results are taken from patent US5958683A, “Screening method using the RZR receptor family” (priority 1994, dated 1999).

SMILES strings stand for the structures.

One experiment relates to adjuvant arthritis. As to conditions: known to be active or inactive; cited from earlier work.
The target in the next experiment is T1, RZR/RORα (Homo sapiens, UniProt P35398).
T1 construct: RZRα is likely the RORalpha4 splice form
T1 sequence (P35398 1-523): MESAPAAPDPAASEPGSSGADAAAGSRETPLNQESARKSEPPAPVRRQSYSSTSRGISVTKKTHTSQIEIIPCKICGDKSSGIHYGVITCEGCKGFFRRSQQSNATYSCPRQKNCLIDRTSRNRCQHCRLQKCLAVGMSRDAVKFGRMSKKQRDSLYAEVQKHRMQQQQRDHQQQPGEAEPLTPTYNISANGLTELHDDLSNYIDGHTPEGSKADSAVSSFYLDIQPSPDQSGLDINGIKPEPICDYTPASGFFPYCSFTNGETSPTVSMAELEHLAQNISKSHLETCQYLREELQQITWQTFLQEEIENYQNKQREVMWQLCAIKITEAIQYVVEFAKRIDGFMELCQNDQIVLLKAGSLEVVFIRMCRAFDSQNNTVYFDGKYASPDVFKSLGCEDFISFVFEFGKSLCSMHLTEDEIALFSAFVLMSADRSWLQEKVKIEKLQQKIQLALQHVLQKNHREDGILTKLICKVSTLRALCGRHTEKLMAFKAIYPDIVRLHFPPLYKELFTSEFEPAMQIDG
Description: CAT reporter assay for ligand induced activation, Drosophila SL-3 cells transfected with RZR/RORα. In kind it is cell-based. As to conditions: when applied in the nanomolar range. Here is the method: After dilution with 0.9 ml Schneider's medium, the liposomes are added to the cells.
The values given in table 1 represent the mean activation of CAT activities measured in three independent experiments, compared to the addition of pure solvent (ethanol).
Background: Reporter assays use an easily measured gene product as a stand-in for the process of interest.

Turning to `CC1=C(/C=C/C(C)=C/C=C/C(C)=C/C(=O)O)C(C)(C)CCC1` [9-cis RA, retinoic acid], in the experiment on adjuvant arthritis, the “activity in adjuvant arthritis” value is on record as “-”. Consider `CC1=C(/C=C/C(C)=C/C=C/C(C)=C/C(=O)O)C(C)(C)CCC1` [all trans RA, retinoic acid], for which the “activity in adjuvant arthritis” value in the experiment with adjuvant arthritis was “-”. Consider `COc1ccc2[nH]cc(CCNC(C)=O)c2c1` [melatonin], for which the “affinity to the RZR/RORα receptor” value on RZR/RORα is listed as “high affinity”. As to `C=C1/C(=C\C=C2/CCC[C@]3(C)[C@@H]([C@H](C)CCCC(C)(C)O)CC[C@@H]23)C[C@@H](O)C[C@@H]1O` [vitamin D, 1,25-dihydroxyvitaminD3], the “activity in adjuvant arthritis” value in the experiment with adjuvant arthritis was “-”.
